Where a name gives a salt, the structure may show the parent alone.

One experiment has as its target V1 Receptor (Rattus norvegicus, UniProt P30560). As to the kind of experiment: V1 Receptor Binding Assay ([3H]-Arg-vasopressin, rat liver plasma membrane). Particulars: 37° C., 10 minutes, pH 8.0.
The next experiment concerns the target T1, V2 Receptor (Rattus norvegicus, UniProt Q00788).
T1 construct: rat kidney plasma membrane preparations; from tissue; host or cells: rat kidney plasma membranes
Nature of the experiment: V2 Receptor Binding Assay ([3H]-Arg-vasopressin, rat kidney plasma membrane). As to conditions: 4° C., pH 8.0.

Chain of V1 Receptor (P30560 whole entry): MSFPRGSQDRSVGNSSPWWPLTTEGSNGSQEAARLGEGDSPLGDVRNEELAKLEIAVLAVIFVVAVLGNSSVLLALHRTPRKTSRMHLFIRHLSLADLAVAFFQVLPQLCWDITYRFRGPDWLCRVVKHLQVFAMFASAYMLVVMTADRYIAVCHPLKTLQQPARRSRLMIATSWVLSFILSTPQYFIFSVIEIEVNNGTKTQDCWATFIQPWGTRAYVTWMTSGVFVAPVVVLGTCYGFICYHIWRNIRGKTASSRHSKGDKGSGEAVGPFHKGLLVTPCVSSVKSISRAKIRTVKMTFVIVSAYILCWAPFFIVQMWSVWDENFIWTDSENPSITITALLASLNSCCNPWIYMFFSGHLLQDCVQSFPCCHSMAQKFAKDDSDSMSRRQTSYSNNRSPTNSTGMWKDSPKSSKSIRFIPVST
T1 sequence (Q00788 whole entry): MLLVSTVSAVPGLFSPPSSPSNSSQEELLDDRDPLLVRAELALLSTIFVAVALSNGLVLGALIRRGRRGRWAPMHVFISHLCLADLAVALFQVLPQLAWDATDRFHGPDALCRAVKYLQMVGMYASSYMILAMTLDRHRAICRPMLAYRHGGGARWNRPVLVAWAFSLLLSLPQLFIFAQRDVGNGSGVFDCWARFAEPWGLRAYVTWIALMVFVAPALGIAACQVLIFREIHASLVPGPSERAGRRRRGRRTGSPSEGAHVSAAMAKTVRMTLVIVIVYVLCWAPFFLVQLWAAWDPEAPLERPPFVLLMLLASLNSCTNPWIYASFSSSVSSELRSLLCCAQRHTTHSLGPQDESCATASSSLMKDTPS
Method for V1 Receptor: After incubation, the mixture is filtered three times using the glass filter (GF/F) so as to separate the membrane preparation combining with vasopressin and then washed with the buffer (5 ml). This glass filter is taken out and mixed with liquid scintillation cocktail. The amount of [^3 H]-vasopressin combining with the membrane is measured by liquid scintillation counter and the rate of the inhibitory effect of the test compound is estimated according to the following equation.
(§1) C1 : The amount of [^3 H]-vasopressin combining with the membrane in the presence of the test compound of a known amount.
(§2) C0 : The amount of [^3 H]-vasopressin combining with the membrane in the absence of the test compound.
B1 : The amount of [^3 H]-vasopressin combining with the membrane in the presence of the excess amount of vasopressin (10^-6 M).
(§3) The results are expressed as IC50 value, which is the concentration of the test compound required to achieve the inhibitory effect in the rate of 50%.
Method for V2 Receptor: Chem., 253, 3211 (1978)], the plasma membrane (100000 dpm, 4×10^-10M) of [^3 H]-Arg-vasopressin and a test compound (0.6 mg, 10^-10 -10^-5 M) are incubated at 4° C. for 3 hours in 100 mM Tris-HCl buffer pH: 8.0 (250 μl ) containing 5 mM MgCl2, 1 mM EDTA and 0.1 % BSA. After incubation, the mixture is filtered using the glass filter (GF/F) so as to separate the membrane preparation combining with vasopressin and then washed twice with the buffer (5 ml). This glass filter is taken out and mixed with liquid scintillation cocktail. The amount of [^3 H]-vasopressin combining with the membrane is measured by liquid scintillation counter and the rate of the inhibitory effect of the test compound is estimated according to the following equation. [formula]
as §1, §2
B1 : The amount of [3H-vasopressin combining with the membrane in the presence of the excess amount of vasopressin (10^-6 M).
as §3

`COc1cc(NC(=O)c2ccccc2C)ccc1C(=O)N1CCCC(OC(=O)[C@@H](N)CCSC)c2cc(Cl)ccc21` (single isomer, unassigned) [Test Compound 13, 5-(L-Methionyloxy)-7-chloro-1-[2-methoxy-4-(2-methylbenzoylamino)benzoyl]-2,3,4,5-tetrahydro-1H-benzazepine hydrochloride]: the IC50 (commonly the midpoint of a concentration-inhibition curve) on V1 Receptor was found to be 20 nM; at V2 Receptor, 6 nM.

Turning to `CSCC[C@H](N)C(=O)OC1CCCN(C(=O)c2ccc(NC(=O)c3ccccc3C)cc2C)c2ccc(Cl)cc21` (single isomer, unassigned) [Test Compound 14, 5-(L-Methionyloxy)-7-chloro-1-[2-methyl-4-(2-methylbenzoylamino)benzoyl]-2,3,4,5-tetrahydro-1H-benzazepine hydrochloride], the figures for the concentration for half-maximal inhibition (IC50) on V1 Receptor and on V2 Receptor were 220 nM and 11 nM, respectively.

Turning to `Cc1ccccc1C(=O)Nc1ccc(C(=O)N2CCCC(OC(=O)[C@@H](N)C(C)C)c3cc(Cl)ccc32)c(C)c1` (single isomer, unassigned) [Test Compound 15, 5-(L-Valyloxy)-7-chloro-1-[2-methyl-4-(2-methylbenzoylamino)benzoyl]-2,3,4,5-tetrahydro-1H-benzazepine hydrochloride], the IC50 at V1 Receptor was 180 nM; on V2 Receptor, 14 nM.

With `CN(C)C1CCCN(C(=O)c2ccc(NC(=O)Cc3c(Cl)cccc3Cl)cc2)c2ccccc21` (centres unmarked) [Test Compound 6, 5-Dimethylamino-1-{4-[2-(2,6-dichlorophenyl)acetylamino]benzoyl}-2,3,4,5-tetrahydro-1H-benzazepine], the half-maximal inhibitory concentration (IC50) at V1 Receptor turned out to be 120 nM; at V2 Receptor, 24 nM.

Take `Cc1ccccc1CC(=O)Nc1ccc(C(=O)N2CCCC(O)c3cc(Cl)ccc32)c(C)c1` (centres unmarked) [Test Compound 16, 5-Hydroxy-7-chloro-1-{2-methyl-4-[2-(2-methylphenyl)acetylamino]benzoyl}-2,3,4,5-tetrahydro-1H-benzazepine]: the IC50 stood at 320 nM on V1 Receptor and 4 nM at V2 Receptor.

In the case of `COc1cc(NC(=O)c2ccccc2C)ccc1C(=O)N1CCCC(OC(=O)CN2CCOCC2)c2cc(Cl)ccc21` (centres unmarked) [Test Compound 17, 5-(2-Morpholinoacetyloxy)-7-chloro-1-[2-methoxy-4-(2-methylbenzoylamino)benzoyl]-2,3,4,5-tetrahydro-1H-benzazepine hydrochloride], the IC50 is 21 nM at V1 Receptor and 12 nM at V2 Receptor.

For the compound `COc1cc(NC(=O)Cc2ccccc2C)ccc1C(=O)N1CCCC(O)c2cc(Cl)ccc21` (centres unmarked) [Test Compound 18, 5-Hydroxy-7-chloro-1-{2-methoxy-4-[2-(2-methylphenyl)acetylamino]benzoyl}-2,3,4,5-tetrahydro-1H-benzazepine], the IC50 was determined as 55 nM at V1 Receptor and 4 nM on V2 Receptor.

Consider `COCC(=O)OC1CCCN(C(=O)c2ccc(NC(=O)c3ccccc3C)cc2)c2ccc(Cl)cc21` (centres unmarked) [Test Compound 24, 5-(2-Methoxyacetyloxy)-7-chloro-1-[4-(2-methylbenzoylamino)benzoyl]-2,3,4,5-tetrahydro-1H-benzazepine], for which the IC50 on V1 Receptor was found to be 18 nM; on V2 Receptor, 7 nM.

With `Cc1ccccc1C(=O)Nc1ccc(C(=O)N2CCCC(COC(=O)CN(C)C)c3cc(Cl)ccc32)cc1` (centres unmarked) [Test Compound 25, 5-[2-(Dimethylaminoacetyloxy)methyl]-7-chloro-1-[4-(2-methylbenzoylamino)benzoyl]-2,3,4,5-tetrahydro-1H-benzazepine hydrochloride], the IC50 at V1 Receptor is 21 nM; on V2 Receptor, 4 nM.

`CCOC(=O)CC1CCCN(C(=O)c2ccc(NC(=O)c3ccccc3C)cc2OC)c2ccc(Cl)cc21` (centres unmarked) [Test Compound 26, 5-Ethoxycarbonylmethyl-7-chloro-1-[2-methoxy-4-(2-methylbenzoylamino)benzoyl]-2,3,4,5-tetrahydro-1H-benzazepine]: the IC50 worked out at 77 nM at V1 Receptor and 9 nM at V2 Receptor.

`COc1cc(C(=O)N2CCCC(CC(=O)N3CCN(C)CC3)c3cc(Cl)ccc32)ccc1NC(=O)c1ccccc1C` (centres unmarked) [Test Compound 27, 5-[(4-Methyl-1-piperazinyl)carbonylmethyl]-7-chloro-1-[3-methoxy-4-(2-methylbenzoylamino)benzoyl]-2,3,4,5-tetrahydro-1H-benzazepine]: the half-inhibitory concentration (IC50) on V1 Receptor worked out at 34 nM; on V2 Receptor, 7 nM.

`CCOc1cc(NC(=O)c2ccccc2Cl)ccc1C(=O)N1CCCC(CC(N)=O)c2cc(Cl)ccc21` (centres unmarked) [Test Compound 28, 5-Carbamoylmethyl-7-chloro-1-[2-ethoxy-4-(2-chlorobenzoylamino)benzoyl]-2,3,4,5-tetrahydro-1H-benzazepine]: the results for the IC50 at V1 Receptor and on V2 Receptor were 30 nM and 2 nM, respectively.

With `COc1cc(NC(=O)c2ccccc2C)ccc1C(=O)N1CCCC(OC(=O)[C@@H](N)CCCCN)c2cc(Cl)ccc21` (stereo partly drawn) [Test Compound 29, 5-(L-Lysyloxy)-7-chloro-1-[2-methoxy-4-(2-methylbenzoylamino)benzoyl]-2,3,4,5-tetrahydro-1H-benzazepine dihydrochloride], the 50% inhibitory concentration (IC50) worked out at 40 nM at V1 Receptor and 6 nM on V2 Receptor.

`COc1cc(C(=O)N2CCCC(CC(=O)NC3CCNCC3)c3cc(Cl)ccc32)ccc1NC(=O)c1ccccc1C` (centres unmarked) [Test Compound 30, 5-[(4-Piperidinyl)aminocarbonylmethyl]-7-chloro-1-[3-methoxy-4-(2-methylbenzoylamino)benzoyl]-2,3,4,5-tetrahydro-1H-benzazepine hydrochloride]: the half-inhibitory concentration (IC50) on V1 Receptor worked out at 31 nM; on V2 Receptor it was 9 nM.

For `COc1cc(C(=O)N2CCCC(CC(=O)N(C)C)c3cc(Cl)ccc32)ccc1NC(=O)c1ccccc1C` (centres unmarked) [Test Compound 32, 5-Dimethylaminocarbonylmethyl-7-chloro-1-[3-methoxy-4-(2-methylbenzoylamino)benzoyl]-2,3,4,5-tetrahydro-1H-benzazepine], the 50% inhibitory concentration (IC50) at V1 Receptor came to 11 nM; on V2 Receptor, 4 nM.

For `Cc1ccccc1C(=O)Nc1ccc(C(=O)N2CCCC(=CCCN(C)C)c3cc(F)ccc32)c(Cl)c1` [Test Compound 33, 5-(3-Dimethylaminopropylidene)-7-fluoro-1-[2-chloro-4-(2-methylbenzoylamino)benzoyl]-2,3,4,5-tetrahydro-1H-benzazepine hydrochloride], the results for the IC50 at V1 Receptor and at V2 Receptor were 84 nM and 2 nM, respectively.

On to `COc1cc(NC(=O)c2ccccc2C)ccc1C(=O)N1CCCC(OCCN2CCCC2)c2cc(Cl)ccc21` (centres unmarked) [Test Compound 34, 5-[2-(1-Pyrrolidinyl)ethoxy]-7-chloro-1-[2-methoxy-4-(2-methylbenzoylamino)benzoyl]-2,3,4,5-tetrahydro-1H-benzazepine hydrochloride], for which the IC50 is 9 nM at V1 Receptor and 6 nM on V2 Receptor.

With `COc1cc(NC(=O)c2ccccc2C)ccc1C(=O)N1CCCC(OCCCOS(=O)(=O)c2ccc(C)cc2)c2cc(Cl)ccc21` (centres unmarked) [Test Compound 37, 5-[3-(p-Toluenesulfonyloxy)propoxy]-7-chloro-1-[2-methoxy-4-(2-methylbenzoylamino)benzoyl]-2,3,4,5-tetrahydro-1H-benzazepine], the figures for the IC50 on V1 Receptor and on V2 Receptor were 210 nM and 5.4 nM, respectively.

As to `Cc1ccccc1C(=O)Nc1ccc(C(=O)N2CCCC(C#N)c3cc(Cl)ccc32)cc1Cl` (centres unmarked) [Test Compound 38, 5-Cyano-7-chloro-1-[3-chloro-4-(2-methylbenzoylamino)benzoyl]-2,3,4,5-tetrahydro-1H-benzazepine], the IC50 stood at 160 nM on V1 Receptor and 150 nM at V2 Receptor.

As to `COc1cc(C(=O)N2CCCC(CC#N)c3cc(Cl)ccc32)ccc1NC(=O)c1ccccc1C` (centres unmarked) [Test Compound 39, 5-Cyanomethyl-7-chloro-1-[3-methoxy-4-(2-methylbenzoylamino)benzoyl]-2,3,4,5-tetrahydro-1H-benzazepine], the IC50 at V1 Receptor was 44 nM; at V2 Receptor, 14 nM.

With `COc1cc(NC(=O)c2ccccc2C)ccc1C(=O)N1CCCC(OCCN2CCN(C(C)=O)CC2)c2cc(Cl)ccc21` (centres unmarked) [Test Compound 40, 5-[2-(4-Acetyl-1-piperazinyl)ethoxy]-7-chloro-1-[2-methoxy-4-(2-methylbenzoylamino)benzoyl]-2,3,4,5-tetrahydro-1H-benzazepine hydrochloride], the IC50 on V1 Receptor came out at 73 nM; on V2 Receptor it was 7 nM.

As to `CNC(=O)CC1CCCN(C(=O)c2ccc(NC(=O)c3ccccc3C)cc2OC)c2ccc(F)cc21` (centres unmarked) [Test Compound 42, 5-Methylaminocarbonylmethyl-7-fluoro-1-[2-methoxy-4-(2-methylbenzoylamino)benzoyl]-2,3,4,5-tetrahydro-1H-benzazepine], the IC50 came to 160 nM on V1 Receptor and 6 nM on V2 Receptor.

As to `COc1cc(NC(=O)c2ccccc2C)ccc1C(=O)N1CCCC(OCCN2CCNCC2)c2cc(Cl)ccc21` (centres unmarked) [Test Compound 43, 5-[2-(1-Piperazinyl)ethoxy]-7-chloro-1-[2-methoxy-4-(2-methylbenzoylamino)benzoyl]-2,3,4,5-tetrahydro-1H-benzazepine dihydrochloride], the IC50 on V1 Receptor was found to be 70 nM; on V2 Receptor, 6 nM.

Consider `COc1cc(NC(=O)c2ccccc2Cl)ccc1C(=O)N1CCCC(CC(=O)N2CCN(C)CC2)c2cc(Cl)ccc21` (centres unmarked) [Test Compound 44, 5-[(4-Methyl-1-piperazinyl)carbonylmethyl]-7-chloro-1-[2-methoxy-4-(2-chlorobenzoylamino)benzoyl]-2,3,4,5-tetrahydro-1H-benzazepine hydrochloride], for which the values for the half-inhibitory concentration (IC50) on V1 Receptor and at V2 Receptor were 24 nM and 6 nM, respectively.

At V1 Receptor, `COc1cc(C(=O)N2CCCCc3cc(Cl)ccc32)ccc1NC(=O)c1ccccc1OCCCCN1CCN(C(C)=O)CC1` [Test Compound 56, 7-Chloro-1-[3-methoxy-4-{2-[4-(4-acetyl-1-piperazinyl)butoxy]benzoylamino}benzoyl]-2,3,4,5-tetrahydro-1H-benzazepine] had a concentration for half-maximal inhibition (IC50) of 7 nM.

As to `Cc1ccccc1C(=O)Nc1ccc(C(=O)N2CCCC(CC(=O)NCC(N)=O)c3cc(Cl)ccc32)c(C)c1` (centres unmarked) [Test Compound 62, 5-(Carbamoylmethylaminocarbonylmethyl)-7-chloro-1-[2-methyl-4-(2-methylbenzoylamino)benzoyl]-2,3,4,5-tetrahydro-1H-benzazepine], the IC50 at V2 Receptor amounted to 3 nM.

Values taken from US5244898A, “Benzoheterocyclic compounds” (Otsuka Pharmaceutical Co., Ltd., priority 1991, dated 1993).
